Calls of active or inactive are those of the source. The calls are words filed in the database; no cut-off is given here.
Experiments:
[1] = test system: K562; assay: Inhibition of P-gp in doxorubicin resistant human K562 cells assessed as reduction in cell viability measured after 48 hrs by Presto blue assay; type: cell-based
[2] = Antiproliferative activity against human K562 cells measured after 48 hrs by Presto blue assay; type: functional; details: K562, 48 h
[3] = test system: H460; assay: Inhibition of P-gp in drug resistant human H460 cells assessed as reduction in cell viability measured after 48 hrs by sulforhodamine B assay; type: cell-based
[4] = Antiproliferative activity against human NCI-H460 cells measured after 48 hrs by sulforhodamine B assay; type: functional; details: NCI-H460, 48 h
[5] = Stability of the compound in HEPES medium at 1.5 10^-3 M incubated for 5 to 30 mins under dark condition by HPLC method; type: physicochemical
[6] = Chemical stability of the compound in pH 1 HCl buffer at 10^-4 M incubated for 75 mins by HPLC method; type: physicochemical; details: pH 1, 1.25 h, 100 µM
[7] = Stability of the compound in RPMI medium at 1.5 10^-3 M incubated for 5 to 30 mins under dark condition by HPLC method; type: physicochemical
[8] = Stability of the compound at 4 degreeC at 10^-4 M incubated for 6 to 12 days under dark condition by HPLC method; type: physicochemical; details: 100 µM
[9] = Chemical stability of the compound in pH 5 sodium acetate buffer at 10^-4 M incubated for overnight by HPLC method; type: physicochemical; details: pH 5, 100 µM
[10] = Chemical stability of the compound in pH 9.1 sodium boric acid buffer at 10^-4 M incubated for overnight by HPLC method; type: physicochemical; details: pH 9.1, 100 µM
[11] = Stability of the compound at -20 degreeC at 10^-4 M incubated for 6 to 12 days under dark condition by HPLC method; type: physicochemical; details: 100 µM
[12] = Chemical stability of the compound in pH 6.7 potassium phosphate buffer at 10^-4 M incubated for overnight by HPLC method; type: physicochemical; details: pH 6.7, 100 µM
[13] = Stability of the compound at room temperature at 10^-4 M incubated for 6 to 12 days under dark condition by HPLC method; type: physicochemical; details: 100 µM
[14] = Chemical stability of the compound in pH 7.4 phosphate buffered saline at 10^-4 M incubated for overnight by HPLC method; type: physicochemical; details: buffer, pH 7.4, 100 µM
[15] = Cell cycle arrest in doxorubicin resistant human K562 cells assessed as accumulation at G2/M phase at 4.1 to 5.4 uM measured after 48 hrs by propidium iodide staining based flow cytometry; type: functional
[16] = Down regulation of p-gp expression in doxorubicin resistant human K562 cells at 2.7 to 4.1 uM measured after 48 hrs by Western blot method; type: functional, cell-based
[17] = Down regulation of cyclin B1 expression in doxorubicin resistant human K562 cells at 2.7 to 5.4 uM measured after 48 hrs by Western blot method; type: functional, cell-based
[18] = Cell cycle arrest in doxorubicin resistant human K562 cells assessed as decrease in G0/G1 phase at 2.7 uM measured after 48 hrs by propidium iodide staining based flow cytometry; type: functional
[19] = Up regulation of p53 expression in doxorubicin resistant human K562 cells at 2.7 to 5.4 uM measured after 48 hrs by Western blot method; type: functional, cell-based
[20] = test system: K562; assay: Induction of apoptosis in doxorubicin resistant human K562 cells assessed as increase in PARP-1 cleavage at 2.7 to 5.4 uM measured after 48 hrs by Western blot method; type: functional, cell-based
[21] = test system: K562; assay: Induction of apoptosis in doxorubicin resistant human K562 cells at 4.1 uM by Annexin V-FITC/propidium iodide staining based flow cytometry; type: functional
[22] = test system: K562; assay: Inhibition of P-gp in doxorubicin resistant human K562 cells assessed as increase in accumulation of rhodamine 123 at 10 uM measured after 1 hr by flow cytometry; type: cell-based
[23] = test system: K562; assay: Induction of apoptosis in doxorubicin resistant human K562 cells at 5.4 uM by Annexin V-FITC/propidium iodide staining based flow cytometry; type: functional
[24] = Cell cycle arrest in doxorubicin resistant human K562 cells assessed as decrease in S phase at 2.7 uM measured after 48 hrs by propidium iodide staining based flow cytometry; type: functional
[25] = test system: K562; assay: Induction of apoptosis in doxorubicin resistant human K562 cells assessed as decrease in pro-caspase 3 level at 2.7 to 5.4 uM measured after 48 hrs by Western blot method; type: functional, cell-based
[26] = Cell cycle arrest in doxorubicin resistant human K562 cells assessed as increase in G2/M phase at 2.7 uM measured after 48 hrs by propidium iodide staining based flow cytometry; type: functional
[27] = test system: K562; assay: Induction of apoptosis in doxorubicin resistant human K562 cells at 2.7 uM by Annexin V-FITC/propidium iodide staining based flow cytometry; type: functional
[28] = test system: K562; assay: Induction of apoptosis in doxorubicin resistant human K562 cells at 30 uM by Annexin V-FITC/propidium iodide staining based flow cytometry; type: functional
[29] = test system: K562; assay: Induction of apoptosis in doxorubicin resistant human K562 cells at 20 uM by Annexin V-FITC/propidium iodide staining based flow cytometry; type: functional
[30] = Cell cycle arrest in doxorubicin resistant human K562 cells assessed as decrease in G2/M phase at 30 to 40 uM measured after 48 hrs by propidium iodide staining based flow cytometry; type: functional
[31] = test system: K562; assay: Induction of apoptosis in doxorubicin resistant human K562 cells decrease in pro-caspase 3 level at 20 to 40 uM measured after 48 hrs by Western blot method; type: functional, cell-based
[32] = Cell cycle arrest in doxorubicin resistant human K562 cells assessed as accumulation at G0/G1 phase at 30 to 40 uM measured after 48 hrs by propidium iodide staining based flow cytometry; type: functional
[33] = Up regulation of p53 expression in doxorubicin resistant human K562 cells at 20 to 40 uM measured after 48 hrs by Western blot method; type: functional, cell-based
[34] = Down regulation of cyclin B1 expression in doxorubicin resistant human K562 cells at 20 to 40 uM measured after 48 hrs by Western blot method; type: functional, cell-based
[35] = Down regulation of p-gp expression in doxorubicin resistant human K562 cells at 20 to 30 uM measured after 48 hrs by Western blot method; type: functional, cell-based
[36] = Cell cycle arrest in doxorubicin resistant human K562 cells assessed as decrease in G0/G1 phase at 20 uM measured after 48 hrs by propidium iodide staining based flow cytometry; type: functional
[37] = Cell cycle arrest in doxorubicin resistant human K562 cells assessed as increase in G2/M phase at 20 uM measured after 48 hrs by propidium iodide staining based flow cytometry; type: functional
[38] = test system: K562; assay: Induction of apoptosis in doxorubicin resistant human K562 cells assessed as increase in PARP-1 cleavage at 20 to 40 uM measured after 48 hrs by Western blot method; type: functional, cell-based
[39] = Cell cycle arrest in doxorubicin resistant human K562 cells assessed as decrease in S phase at 20 uM measured after 48 hrs by propidium iodide staining based flow cytometry; type: functional
[40] = test system: K562; assay: Induction of apoptosis in doxorubicin resistant human K562 cells at 40 uM by Annexin V-FITC/propidium iodide staining based flow cytometry; type: functional
[41] = test system: K562; assay: Inhibition of P-gp in doxorubicin resistant human K562 cells assessed as reduction in cell viability measured after 48 hrs by SRB assay; type: cell-based

SMILES | GI50 [1] [µM] | GI50 [2] [µM] | GI50 [3] [µM] | GI50 [4] [µM] | Stability [5] | Stability [6] | Stability [7] | Stability [8] | Stability [9] | Stability [10] | Stability [11] | Stability [12] | Stability [13] | Stability [14] | other results
COC(=O)COc1ccc(/C=C/C(C)=O)cc1OC | > 150 | > 150 | > 150 | > 150 |  |  |  |  |  |  |  |  |  |  | 
COc1cc(/C=C/C(C)=O)ccc1O [DEHYDROZINGERONE] | 92 | 85.3 | 62.7 | 64.8 | Stable | Stable | Stable | Stable | Stable | Stable | Stable | Stable | Stable | Stable | 
C#CCOc1ccc(/C=C/C(C)=O)cc1OC | 133 | > 150 | 41.7 | 52.7 |  |  |  |  |  |  |  |  |  |  | 
C#CCOc1ccc(/C=C/C(=O)CC(=O)/C=C/c2ccc(OCC#C)c(OC)c2)cc1OC | 2.73 | 6.3 | 2.6 | 3.4 | Stable | Stable | Stable | Stable | Stable | Stable | Stable | Stable | Stable | Stable | Activity [15]: Active; Activity [16]: Active; Activity [17]: Active; Activity [18]: Active; Activity [19]: Active; Activity [20]: Active; Activity [21]: 11.3%; inhibition [22]: Active; Activity [23]: 14.8%; Activity [24]: Active; Activity [25]: Active; Activity [26]: Active; Activity [27]: 9.3%
COc1ccc(CCN(C)CCCC(C#N)(c2ccc(OC)c(OC)c2)C(C)C)cc1OC (stereo not drawn) |  |  |  |  |  |  |  |  |  |  |  |  |  |  | inhibition [22]: Active
C=CCOc1ccc(/C=C/C(C)=O)cc1OC | 63.3 | 68.7 | 39.3 | 41.5 |  |  |  |  |  |  |  |  |  |  | 
COc1cc(/C=C/C(=O)/C=C/c2ccc(O)c(OC)c2)ccc1O | 20.7 | 9.33 | 1.8 | 1.47 | Stable | Stable | Stable | Unstable | Stable | Stable | Unstable | Stable | Unstable | Stable | 
COc1cc(/C=C/C(=O)CC(=O)/C=C/c2ccc(O)c(OC)c2)ccc1O [CURCUMIN] | 19.7 | 21.7 | 26 | 27.3 | Stable | Unstable | Stable | Stable | Unstable | Unstable | Stable | Unstable | Stable | Unstable | Activity [28]: 26.9%; Activity [29]: 11.8%; Activity [30]: Active; Activity [31]: Active; Activity [32]: Active; Activity [33]: Active; Activity [34]: Active; Activity [35]: Active; Activity [36]: Active; Activity [37]: Active; Activity [38]: Active; Activity [39]: Active; Activity [40]: 32%
COc1cc(/C=C/C(C)=O)ccc1OCCCNC(=O)OC(C)(C)C | > 150 | > 150 | 41 | 55.2 |  |  |  |  |  |  |  |  |  |  | inhibition [22]: Active
COc1cc(/C=C/C(=O)CC(=O)/C=C/c2ccc(OCc3cn(CCO[C@@H]4O[C@H](COC(C)=O)[C@H](OC(C)=O)[C@H](OC(C)=O)[C@H]4NC(C)=O)nn3)c(OC)c2)ccc1OCc1cn(CCO[C@@H]2O[C@H](COC(C)=O)[C@H](OC(C)=O)[C@H](OC(C)=O)[C@H]2NC(C)=O)nn1 | > 150 | > 150 | > 150 | > 150 |  |  |  |  |  |  |  |  |  |  | 
COc1cccc2c1C(=O)c1c(O)c3c(c(O)c1C2=O)C[C@@](O)(C(=O)CO)C[C@@H]3O[C@H]1C[C@H](N)[C@H](O)[C@H](C)O1 [DOXORUBICIN] | > 0.15 | 0.065 | > 0.15 | 0.02 |  |  |  |  |  |  |  |  |  |  | GI50 [41]: 11.6 µM
COc1cc(/C=C/C(C)=O)ccc1OCc1cn(CCO[C@@H]2O[C@H](COC(C)=O)[C@H](OC(C)=O)[C@H](OC(C)=O)[C@H]2NC(C)=O)nn1 | > 150 | > 150 | > 150 | > 150 |  |  |  |  |  |  |  |  |  |  | 

Source: ChEMBL document CHEMBL3872245, “A novel curcumin derivative which inhibits P-glycoprotein, arrests cell cycle and induces apoptosis in multidrug resistance cells” (Bioorg Med Chem, 2017)
